{"source": "patent US20260364186A1", "about": "“Chemical Conjugates, Compositions, and Methods of Preparation and Use Thereof” (Transfection Holdings Limited, priority 2022, published 2026)", "tested_on": "NZM011, NZM009, NZM012, NZM022 and NZM077 cells", "assay": "Flow cytometry uptake into metastatic melanoma lines (Example 11)", "type": "cell-based, human", "conditions": "200 nM, 30 minutes", "protocol": "FIG. 11: Uptake for compounds 124, 126, and 132 at 200 nM and 30 minute incubation with melanoma cell lines: NZM12 (NZM012) (BRAF V600E mutant metastatic melanoma, homozygous deletion CDKN2A and low invasive cell line), NZM77 (NZM077) (BRAF V600E mutant metastatic melanoma and missense NF1), NZM22 (NZM022) (BRAF G466A mutant metastatic melanoma, P53 241S/T mutant, NF1 non-frameshift insertion and PTEN epigenetic silencing). NZM9 (NZM009) (P53 179C/T mutant and homozygous silencing CDKN2A). NZM11 (NZM011) (BRAF V600E mutant metastatic melanoma and homozygous deletion CDKN2A), as positive control. Mean fluorescent intensities (MFI). 1,500-2,000 cells were obtained. Bars represent mean±SD. Results are from a single experiment done in triplicate. Cells were analysed by FACS.\nMethods: For screening, NZM011, NZM009, NZM012, NZM022 and NZM077 cells were suspended at 250 cells per μL in MEMα media and 200 μL was dispensed into 96 well plates. The cells were left to settle for 24 hours for NZM011, NZM012 and NZM077 and 48 hours for NZM009 and NZM022 at 37 °C, 5% O2, 5% CO2. Before addition to the cells, 10 μL of 10 mM stock solutions in DMSO of compounds 124, 126, and 132 were diluted with 1% FBS MEMα media to give a 200 nM solution.\nAfter the appropriate settle time, the media was removed from the 96 well plates and 200 μL of 200 nM conjugate solutions and DMSO control were dispensed to each well (in triplicate) and incubated for 30 minutes at 37 °C, 5% O2, 5% CO2. After 30 minutes, the media was removed and cells washed with PBS. Next, 100 μL of TrypLE trypsin (ThermoFisher Scientific) was added to each well and incubated for 5 minutes at 37 °C. After this, 150 μL of MEMα media (plus 1% FBS for NZM011, NZM012 and NZM077; plus 5% FBS for NZM009 and NZM022) were added. Cells were analysed by flow cytometry using a FACS biosort and FITC filter. Flow cytometry results represent the mean of the fluorescence intensities (in arbitrary units) measured for cells sorted in every sample.", "note": "“Also recorded” adds a separate entry of the source.", "data": [{"smiles": "CC1=CC(C)=[N+]2C1=Cc1ccc(CCCn3cc(CCNC(=O)/C=C/NC(=O)[C@H](O)C(C)(C)CO)nn3)n1[B-]2(F)F", "note": "[Compound 124]", "values": [{"measurement": "uptake, in words", "result": "highest uptake levels; also recorded: consistent, selective and high level of uptake"}, {"measurement": "times greater uptake than conjugate 132", "setting": "five cell lines", "result": "1.5-3 times"}]}]}
